Assays:
[1] = system: HIV-1 RT mutant resistance test vector A62V; experiment: Phenotypic susceptibility assay, site directed RTV A62V; format: cell-based; details: RTV with A62V vs wild type RTV; 3 replicates
Experimental: (§1) Resistance tests were carried out with resistance test vectors using two host cell types. Resistance test vector viral particles were produced by a first host cell (the resistance test vector host cell) that was prepared by transfecting a packaging host cell with the resistance test vector and the packaging expression vector. The resistance test vector viral particles were then used to infect a second host cell (the target host cell) in which the expression of the indicator gene is measured.
(§2) The resistance test vectors containing a functional luciferase gene cassette were constructed and host cells were transfected with the resistance test vector DNA. The resistant test vectors contained patient-derived reverse transcriptase and protease sequences that were either susceptible or resistant to the antiretroviral agents, such as nucleoside reverse transcriptase inhibitors, non-nucleoside reverse transcriptase inhibitors and protease inhibitors. The resistance test vector viral particles produced by transfecting the resistance test vector DNA into host cells, either in the presence or absence of protease inhibitors, were used to infect target host cells grown either in the absence of NRTI or NNRTI or In the presence of increasing concentrations of the drug. The amount of luciferase activIty produced in infected target host cells in the presence of drug was compared to the amount of luciferase produced in infected target host cells in the absence of drug. Drug resistance was measured as the amount of drug required to inhibit by 50% the luciferase activity detected in the absence of drug (Inhibitory concentration 50%, IC50). The IC50 values were determined by plotting percent drug inhibition vs. log 10 drug concentration.
(§3) Host cells were seeded in 10-cm-diameter dishes and were transfected several days after plating with resistance test vector plasmid DNA and the envelope expression vector. Transfections were performed using a calcium-phosphate precipitation procedure. The cell culture media containing the DNA precipitate was replaced with fresh medium, from one to 24 hours, after transfection. Cell culture media containing resistance test vector viral particles was harvested one to four days after transfection and was passed through a […] filter before being stored at −80° C. HIV capsid protein (p24) levels in the harvested cell culture media were determined by an EIA method as described by the manufacturer (SIAC; Frederick, Md.). Before infection, target cells (293 and 293/T) were plated in cell culture media. Control infections were performed using cell culture media from mock transfections (no DNA) or transfections containing the resistance test vector plasmid DNA without the envelope expression plasmid. One to three or more days after infectIon the media was removed and cell lysis buffer (Promega) was added to each well. Cell lysates were assayed for luciferase activity (FIG. 3). The inhibitory effect of the drug was determined using the following equation:
(§4) % luciferase inhibition=1−(RLUluc[drug]÷RLUluc)×100
(§5) where RLUluc [drug] is the relative light unit of luciferase activity in infected cells in the presence of drug and RLUluc is the Relative Light Unit of luciferase activity in infected cells in the absence of drug. IC50 values were obtained from the sigmoidal curves that were generated from the data by plotting the percent inhibition of luciferase activity vs. the log 10 drug concentration. The drug inhibition curves are shown in (FIG. 3).
(§6) Genotypic changes that are observed to correlate with changes in phenotypic patterns of drug susceptibility are evaluated by construction of resistance test vectors containing the specific mutation on a defined, wild-type (drug susceptible) genetic background. Mutations may be incorporated alone and/or in combination with other known drug resistance mutations that are thought to modulate the susceptibility of HIV to a certain drug or class of drugs. […]

[2] = system: HIV-1 RT mutant resistance test vector T69SSA; experiment: Phenotypic susceptibility assay, site directed RTV T69SSA; format: cell-based; details: RTV with T69SSA vs wild type RTV; 3 replicates
Experimental: as §1, §2, §3, §4, §5, §6

[3] = system: HIV-1 RT mutant resistance test vector A62V+T69SSA; experiment: Phenotypic susceptibility assay, site directed RTV A62V+T69SSA; format: cell-based; details: RTV with 62 + 69 (A62V+T69SSA); 4 replicates
Experimental: as §1, §2, §3, §4, §5, §6

[4] = system: HIV-1 RT mutant resistance test vector A62V+T69SSA+V75I; experiment: Phenotypic susceptibility assay, site directed RTV A62V+T69SSA+V75I; format: cell-based; details: RTV with 62 + 69 + 751 (A62V, T69SSA, V75I); 1 replicate
Experimental: as §1, §2, §3, §4, §5, §6

[5] = system: HIV-1 RT mutant resistance test vector 41 + 215 (M41L and T215Y); experiment: Phenotypic susceptibility assay, site directed RTV 41 + 215; format: cell-based; details: RTV with 41 + 215; 4 replicates
Experimental: as §1, §2, §3, §4, §5, §6

[6] = system: HIV-1 RT mutant resistance test vector 41 + 210 + 215; experiment: Phenotypic susceptibility assay, site directed RTV 41 + 210 + 215; format: cell-based; details: RTV with 41 + 210 + 215; 3 replicates
Experimental: as §1, §2, §3, §4, §5, §6

[7] = system: HIV-1 RT mutant resistance test vector M41L-T69SSA-T215Y-RTV; experiment: Phenotypic susceptibility assay, site directed RTV M41L+T69SSA+T215Y; format: cell-based; details: for effect on susceptibility (words): RTV with M41L+T69SSA+T215Y
Experimental: as §1, §2, §3, §4, §5, §6

[8] = system: HIV-1 RT mutant resistance test vector 41 + 62 + 69 + 75M + 210 + 215; experiment: Phenotypic susceptibility assay, site directed RTV 41 + 62 + 69 + 75M + 210 + 215; format: cell-based; details: RTV with 41 + 62 + 69 + 75M + 210 + 215; 1 replicate
Experimental: as §1, §2, §3, §4, §5, §6

[9] = system: HIV-1 RT mutant resistance test vector 41 + 62 + 69 + 75S + 210 + 215; experiment: Phenotypic susceptibility assay, site directed RTV 41 + 62 + 69 + 75S + 210 + 215; format: cell-based; details: RTV with 41 + 62 + 69 + 75S + 210 + 215; 1 replicate
Experimental: as §1, §2, §3, §4, §5, §6

[10] = system: HIV-1 RT mutant resistance test vector 41 + 184 + 215; experiment: Phenotypic susceptibility assay, site directed RTV 41 + 184 + 215; format: cell-based; details: RTV with 41 + 184 + 215; 3 replicates
Experimental: as §1, §2, §3, §4, §5, §6

[11] = system: HIV-1 RT mutant resistance test vector 41 + 69 + 184 + 215; experiment: Phenotypic susceptibility assay, site directed RTV 41 + 69 + 184 + 215; format: cell-based; details: RTV with 41 + 69 + 184 + 215; 2 replicates
Experimental: as §1, §2, §3, §4, §5, §6

[12] = system: HIV-1 RT mutant resistance test vector M41L+A62V+T69SSA+M184V+T215Y; experiment: Phenotypic susceptibility assay, site directed RTV M41L+A62V+T69SSA+M184V+T215Y; format: cell-based; details: RTV with 41 + 62 + 69 + 184 + 215; 2 replicates
Experimental: as §1, §2, §3, §4, §5, §6

[13] = system: HIV-1 RT mutant resistance test vector A62V-T69SSA-T215Y-RTV; experiment: Phenotypic susceptibility assay, site directed RTV A62V-T69SSA-T215Y; format: cell-based; details: RTV with 62 + 69 + 215 (A62V, T69SSA, T215Y); 1 replicate
Experimental: as §1
(§7) The resistance test vectors containing a functional luciferase gene cassette were constructed and host cells were transfected with the resistance test vector DNA. […] The IC50 values were determined by plotting percent drug inhibition vs. log 10 drug concentration.
(§8) Host cells were seeded in 10-cm-diameter dishes and were transfected several days after plating with resistance test vector plasmid DNA and the envelope expression vector. […] HIV capsid protein (p24) levels in the harvested cell culture media were determined by an EIA method as described by the manufacturer (SIAC; Frederick, Md.). […] The inhibitory effect of the drug was determined using the following equation: […]

[14] = system: HIV-1 RT mutant resistance test vector A62V-T69SSA-L74V-RTV; experiment: Phenotypic susceptibility assay, site directed RTV A62V-T69SSA-L74V; format: cell-based; details: RTV with 62 + 69 + 74V; 1 replicate
Experimental: as §1, §2
as §3, with “Cell lysates were assayed for luciferase activity (FIG. 3).” left out
as §4
as §5, with “The drug inhibition curves are shown in (FIG. 3).” left out

[15] = system: HIV-1 RT mutant resistance test vector M41L-A62V-T69SSA-T215Y-RTV; experiment: Phenotypic susceptibility assay, site directed RTV M41L+A62V+T69SSA+T215Y; format: cell-based; details: RTV with 41 + 62 + 69 + 215; 3 replicates
Experimental: as §1, §2
as §3, with “Cell lysates were assayed for luciferase activity (FIG. 3).” left out
as §4
as §5, with “concentration.” for “concentration. The drug inhibition curves are shown in (FIG. 3).”
Mutations may be incorporated alone and/or in combination with other known drug resistance mutations that are thought to modulate the susceptibility of HIV to a certain drug or class of drugs. Mutations are introduced into the resistance test vector through any of the widely known methods for site-directed mutagenesis. In one embodiment of this invention the mega-primer PCR method for site-directed mutagenesis is used.

[16] = system: HIV-1 RT mutant resistance test vector M41L-T69SSA-T215Y-L210W-RTV; experiment: Phenotypic susceptibility assay, site directed RTV M41L+T69SSA+L210W+T215Y; format: cell-based; details: RTV with 41 + 69 + 210 + 215; 3 replicates
Experimental: as §1
as §2, with “Drug resistance was measured as the amount of drug required to inhibit by 50% the luciferase activity detected in the absence of drug (Inhibitory concentration 50%, IC50).” left out
as §8

[17] = system: HIV-1 RT mutant resistance test vector M41L-T69SSA-T215Y-L210W-V75M-RTV; experiment: Phenotypic susceptibility assay, site directed RTV M41L+T69SSA+V75M+L210W+T215Y; format: cell-based; details: RTV with 41 + 69 + 75M + 210 + 215; 1 replicate
Experimental: as §1, §7, §8

[18] = system: HIV-1 RT mutant resistance test vector M41L-A62V-T69SSA-T215Y-L210W-RTV; experiment: Phenotypic susceptibility assay, site directed RTV M41L+A62V+T69SSA+L210W+T215Y; format: cell-based; details: RTV with 41 + 62 + 69 + 210 + 215; 3 replicates
Experimental: as §1
as §2, with “Drug resistance was measured as the amount of drug required to inhibit by 50% the luciferase activity detected in the absence of drug (Inhibitory concentration 50%, IC50).” left out
as §8

[19] = system: ZDV-resistant HIV isolates; details: cited from earlier work
[20] = system: HIV with RT Lys65→Arg mutation; details: Lys65→Arg (K65R); cited from earlier work
[21] = system: HIV with RT K70E mutation; details: in vitro selection; cited from earlier work
[22] = system: AZT-resistant, 3TC-resistant and multi-drug resistant viruses; details: cited from earlier work

Nc1ccn([C@@H]2CS[C@H](CO)O2)c(=O)n1 [3TC, lamivudine]
Average fold reduction in susceptibility [1]: 0.54 fold
Average fold reduction in susceptibility [2]: 3.20 fold
Average fold reduction in susceptibility [3]: 2.89 fold
Average fold reduction in susceptibility [4]: 4.08 fold
Average fold reduction in susceptibility [5]: 1.89 fold
Average fold reduction in susceptibility [6]: 2.14 fold
Average fold reduction in susceptibility ([7]; RTV with 41 + 69 + 215 (M41L, T69SSA, T215Y), 2 replicates): 6.27 fold
Average fold reduction in susceptibility [8]: 18.41 fold
Average fold reduction in susceptibility [9]: 31.67 fold
Average fold reduction in susceptibility [10]: >110 fold
Average fold reduction in susceptibility [11]: >110 fold
Average fold reduction in susceptibility [12]: >110 fold

Cc1ccnc2c1NC(=O)c1cccnc1N2C1CC1 [NEV, nevirapine]
Average fold reduction in susceptibility [13]: 0.6 fold
Average fold reduction in susceptibility [14]: 0.3 fold
effect on susceptibility (words) [7]: slight increase in susceptibility to DEL and NEV
Average fold reduction in susceptibility [15]: 0.8 fold
Average fold reduction in susceptibility [16]: 0.42 fold
Average fold reduction in susceptibility [17]: 0.5 fold
Average fold reduction in susceptibility [18]: 0.6 fold

[N-]=[N+]=N[C@H]1C[C@H](n2ccc(=O)[nH]c2=O)O[C@@H]1CO [AZU, 3′-azido-2′,3′-dideoxyuridine]
cross-resistance of ZDV-resistant strains [19]: cross-resistance

Nc1ncnc2c1ncn2CCOCP(=O)(O)O [adefovir]
fold increase in IC50 / reduction in susceptibility [20]: 16 fold
fold reduction in susceptibility [21]: 9 fold
sensitivity of resistant viruses [22]: remain sensitive to adefovir

CC(C)Nc1cccnc1N1CCN(C(=O)c2cc3cc(NS(C)(=O)=O)ccc3[nH]2)CC1 [DEL, delavirdine]
Average fold reduction in susceptibility [13]: 0.3 fold
Average fold reduction in susceptibility [14]: 0.4 fold
effect on susceptibility (words) [7]: slight increase in susceptibility to DEL and NEV
Average fold reduction in susceptibility [15]: 0.2 fold
Average fold reduction in susceptibility [16]: 0.13 fold
Average fold reduction in susceptibility [17]: 0.25 fold
Average fold reduction in susceptibility [18]: 0.2 fold

Reference: patent publication US6489098B1, “Means and methods for monitoring nucleoside reverse transcriptase inhibitor antiretroviral therapy and guiding therapeutic decisions in the treatment of HIV/AIDS” (ViroLogic, Inc., priority 1998, dated 2002)
